Source: patent US7759345B2, “Antitumoral derivatives of ET-743” (priority 2001, dated 2010)
pIC50: −log10 of the molar value. Read-outs that look alike come from different tables or passages of the source.

How the values were obtained:
A-549 = assay: Inhibition of cell growth by counting cells, A-549; type: cell-based, human; conditions: three days of incubation, read-out: IC50 (molar) A-549
Protocol: (§1) 1°.—Inhibition of Cell Growth by Counting Cells.
(§2) This form of the assay employs 24 well multidishes of 16 mm diameter (Bergeron, 1984; Schroeder, 1981). The tumor cell lines employed are: P-388 (ATCC CCL 46), suspension culture of a lymphoid neoplasm from a DBA/2 mouse; A-549 (ATCC CCL 185), monolayer culture of a human lung carcinoma; HT-29 (ATCC HTB-38), monolayer culture of a human colon carcinoma; MEL-28 (ATCC HTB-72), monolayer culture of a human melanoma and DU-145 (ATCC HTB-81), monolayer culture of a human prostate carcinoma.
(§3) Cells were maintained, in logarithmic phase of growth in Eagle's Minimum Essential Medium, with Earle's Balanced Salts, with non-essential amino acids, with 2.0 mM L-Glutamine, without sodium bicarbonate (EMEM/neaa), supplemented with 10% Fetal Calf Serum (FCS), 10^−2 M. sodium bicarbonate and 0.1 U/l penicillin G+0.1 g/l streptomycin sulfate. For the experiments, cells are harvested from subconfluent cultures using trypsin and resuspended in fresh medium before plating.
(§4) A-549, HT-29, MEL-28 and DU-145 cells were seeded into 16 mm diameter wells at 1×10^4 cells per well in 1 ml aliquots of EMEM 5% FCS containing different concentrations of the sample to be tested. A separate set of cultures without drug was seeded as control of growth, to ensure that cells remained in exponential phase of growth. All determinations are carrying out in duplicate. After three days of incubation at 37° C., 5% CO2 in a 98% humid atmosphere cells were stained with 0.1% crystal violet. An approximately IC50 was determined by comparing the growth in wells with drug to the growth in wells control.
(§5) For quantifying the activity, after the incubation time, cells are trypsinized and counted in a Coulter Counter ZM. All counts (net cells per well), represent the average of duplicate wells. % G, percent of growth relative to cultures without drug. The results of these assays are used to generate dose-response curves from which more precise IC50 values are determined (sample concentration which produces 50% cell growth inhibition).
(§6) Obtained results may predict the usefulness of a certain drug as a potential cancer treatment. For this technique, compounds which show IC50 values smaller than 1 μg/ml are selected to continue with further studies. IC50's data allow to predict that not only could a drug be cystostatic, but also it could have a potential in terms of tumor reduction.

HT-29 = assay: Inhibition of cell growth by counting cells, HT-29; type: cell-based, human; conditions: three days of incubation, read-out: IC50 (molar) HT-29
Protocol: as §1, §2, §3, §4, §5, §6

SMILES	pIC50 (A-549; Homo sapiens, A549, 72 h)	pIC50 (HT-29; Homo sapiens, HT-29, 72 h)	pIC50 (A-549)	pIC50 (HT-29)
C=CCOc1c(C)c2c(c3c1[C@H]1SC[C@]4(NCCc5cc(O)c(OC)cc54)C(=O)OC[C@@H]3N3C1[C@H]1c4c(cc(C)c(OC)c4OCC=C)C[C@@H]([C@@H]3O)N1C)OCO2 (stereo partly shown) [Compound 179]	7.90	7.90	–	–
COc1cc2c(cc1OC(=O)OC(C)(C)C)CCN[C@]21CS[C@@H]2c3c(OC)c(C)c4c(c3[C@H](COC1=O)N1C2[C@H]2c3c(cc(C)c(OC)c3OC)C[C@@H]([C@@H]1C#N)N2C)OCO4 (stereo partly shown) [Compound 127]	–	–	9.93	9.93
CCCOc1c(C)c2c(c3c1[C@H]1SC[C@]4(NCCc5cc(O)c(OC)cc54)C(=O)OC[C@@H]3N3C1[C@H]1c4c(cc(C)c(OC)c4O)C[C@@H]([C@@H]3C#N)N1C)OCO2 (stereo partly shown) [Compound 153]	–	–	9.89	9.89
COc1cc2c(cc1O)CCN[C@]21CS[C@@H]2c3c(OC(=O)/C=C/c4ccccc4)c(C)c4c(c3[C@H](COC1=O)N1C2[C@H]2c3c(cc(C)c(OC)c3OC(=O)/C=C/c3ccccc3)C[C@@H]([C@@H]1C#N)N2C)OCO4 (stereo partly shown) [Compound 138]	9.00	9.00	–	–
COc1cc2c(cc1OC(=O)OC(C)(C)C)CCN[C@]21CS[C@@H]2c3c(OC(=O)C(F)(F)F)c(C)c4c(c3[C@H](COC1=O)N1C2[C@H]2c3c(cc(C)c(OC)c3OC(=O)C(F)(F)F)C[C@@H]([C@@H]1C#N)N2C)OCO4 (stereo partly shown) [Compound 109]	9.01	9.01	–	–
COc1cc2c(cc1OC(=O)OC(C)(C)C)CCN[C@]21CS[C@@H]2c3c(OC(=O)OC(C)(C)C)c(C)c4c(c3[C@H](COC1=O)N1C2[C@H]2c3c(cc(C)c(OC)c3OC(=O)OC(C)(C)C)C[C@@H]([C@@H]1C#N)N2C)OCO4 (stereo partly shown) [Compound 110]	10.01	10.01	–	–
COc1cc2c(cc1O)CCN[C@]21CS[C@@H]2c3c(OC)c(C)c4c(c3[C@H](COC1=O)N1C2[C@H]2c3c(cc(C)c(OC)c3OC)C[C@@H]([C@@H]1C#N)N2C)OCO4 (stereo partly shown) [Compound 150]	8.88	8.88	–	–
CCCOc1c(C)c2c(c3c1[C@H]1SC[C@]4(NCCc5cc(O)c(OC)cc54)C(=O)OC[C@@H]3N3C1[C@H]1c4c(cc(C)c(OC)c4O)C[C@@H]([C@@H]3O)N1C)OCO2 (stereo partly shown) [Compound 178]	8.88	8.88	–	–
